The text below walks through data of patent US6630431B2, “Nail polish lacquer remover” (Board of Trustees of Michigan State University, priority 2001, dated 2003).

The conditions of data set [1]: animals; cited from earlier work.
The nature of another data set: Vapor pressure. Type of data set: physicochemical. Particulars: @ 20° C. As for the experimental part:
The vapor pressure of ethyl lactate is 1.6 mmHg @ 20° C. and for diethyl succinate is 0.2 mmHg @ 20° C. These are very favorable for a nail polish removing lacquer.

Consider `CCOC(=O)CCC(=O)OCC` [diethyl succinate], for which, in data set [1], the LD50 data result is “very large doses are required to produce toxic results”. For the same compound, the vapor pressure in “Vapor pressure” worked out at 0.2 mmHg.

For `CCOC(=O)C(C)O` (stereo not shown) [ethyl lactate], the LD50 data entry in data set [1] was “very large doses are required to produce toxic results”. The vapor pressure in “Vapor pressure” is 1.6 mmHg.
